Among the data in ChEMBL document CHEMBL4765339, “Design, synthesis, and biological evaluation of 4-substituted-3,4-dihydrobenzo[h]quinoline-2,5,6(1H)-triones as NQO1-directed antitumor agents” (Eur J Med Chem, 2020) are Activity, viability and RatioGI50 values, retold here.

The test system of test [1] is HepG2. The test is described as follows: Induction of apoptosis in human HepG2 cells assessed as late apoptotic cells at 1.1 uM incubated for 24 hrs by annexinV-FITC and PI staining based flow cytometry analysis (reference value: 2.27 %). It is filed as functional. A general note: In flow cytometry, cells or beads pass a laser one at a time.
Test [2] deals with HepG2. Kind of test: Induction of apoptosis in human HepG2 cells assessed as viable cells at 4.4 uM incubated for 24 hrs by annexinV-FITC and PI staining based flow cytometry analysis (reference value: 94.73 %). In kind it is functional. The note with it: read-out: Activity.
Test [3] has as its system HepG2. The test is described as follows: Induction of apoptosis in human HepG2 cells incubated for 24 hrs by annexinV-FITC and PI staining based flow cytometry analysis. It is filed as functional, cell-based. The note with it: dose 1.1-4.4 µM.
The subject of test [4] is HepG2. Kind of test: Induction of mitochondrial membrane potential loss in human HepG2 cells at 2.2 uM incubated for 48 hrs by JC-1 staining based flow cytometry analysis (reference value: 2.06 %). In kind it is functional.
For test [5], the system named is HepG2. Kind of test: Induction of apoptosis in human HepG2 cells assessed as necrotic cells at 4.4 uM incubated for 24 hrs by annexinV-FITC and PI staining based flow cytometry analysis (reference value: 0.35 %). In kind it is functional.
In test [6] the test system is HepG2. Kind of test: Induction of apoptosis in human HepG2 cells assessed as late apoptotic cells at 2.2 uM incubated for 24 hrs in presence of dicoumarol by annexinV-FITC and PI staining based flow cytometry analysis (reference value: 2.27 %). In kind it is functional.
A short description of test [7]: Selectivity index, ratio of GI50 for human A549 cells pretreated for 1 hr with ROS scavenger, N-acetyl cysteine followed by incubation with compound for 48 hrs to GI50 for human A549 cells measured after 48 hrs by MTT assay. It is filed as functional. On the technique in general: Formazan colour is commonly taken as a measure of viable cells.
Test [8] deals with NAD(P)H dehydrogenase [quinone] 1 (Homo sapiens) (UniProt P15559). The test is described as follows: Activation of recombinant human C-terminal His-tagged NQO1 (1 to 274 residues) expressed in Escherichia coli assessed as cytochrome c reduction using menadione as substrate in presence of NADPH by spectrophotometry. The note with it: filed as activator, dose 12.5-50 µM.
Test [9] deals with HepG2. Kind of test: Induction of ROS generation in human HepG2 cells at 5 uM by DCFH-DA staining based flow cytometry analysis. It is filed as functional, cell-based. The note with it: time 3-5 hrs, TDE = time-dependent effect.
In test [10] the target is NAD(P)H dehydrogenase [quinone] 1 (Homo sapiens) (UniProt P15559). The test is described as follows: Substrate activity at recombinant human C-terminal His-tagged NQO1 (1 to 274 residues) expressed in Escherichia coli assessed as enzyme activity by measuring oxidation of NADPH incubated for 5 mins measured per micromol of enzyme every 5 sec for 1 mins by UV-visible spectrophotometry.

Test [11] relates to HepG2. The test is described as follows: Induction of apoptosis in human HepG2 cells assessed as necrotic cells at 2.2 uM incubated for 24 hrs in presence of dicoumarol by annexinV-FITC and PI staining based flow cytometry analysis (reference value: 0.35 %). It is filed as functional.

`COc1ccc(C2CC(=O)NC3=C2C(=O)C(=O)c2ccccc23)cc1O` (stereo unspecified): the Activity with HepG2 [1] is 8.9%; with HepG2 [3], “Dose-dependent effect”; in the test on HepG2 [4], 11.03%; in the test with HepG2 [5], 1.07%; in the test on HepG2 [6] it was 9.46%; in [8] it was “Dose-dependent effect”. The Activity entry in the test on HepG2 [9] is “Tde”; in test [10], 2770 µmol/min; in the test on HepG2 [11], 0.69%. Also, the viability at 4.4 µM in the test on HepG2 [2] worked out at 66.5%. The RatioGI50 in [7] came to 2.
